The source of these data is patent publication US20170283440A1, “CARM1 INHIBITORS AND USES THEREOF” (Epizyme, Inc., priority 2014, published 2017).

pIC50: −log10 of the molar value. Some results are limits rather than exact numbers.

The first assay deals with asymmetric di-methyl PABP1 in RKO cells. The assay is described as follows: RKO methylation assay (In Cell Western for asymmetric di-methyl PABP1). The class given is cell-based. The settings on record: 48 hours incubation, read-out: Cellular IC50. The source says:
RKO adherent cells were purchased from ATCC (American Type Culture Collection), Manassas, Va., USA. DMEM/Glutamax medium, penicillin-streptomycin, heat inactivated fetal bovine serum, 0.05% trypsin and D-PBS were purchased from Life Technologies, Grand Island, N.Y., USA. Odyssey blocking buffer, 800CW goat anti-rabbit IgG (H+L) antibody, and Licor Odyssey infrared scanner were purchased from Licor Biosciences, Lincoln, Nebr., USA. Asymmetric di-methyl PABP1 antibody was purchased from Cell Signaling Technology, Danvers, Mass., USA. Methanol was purchased from VWR, Franklin, Mass., USA. 10% Tween 20 was purchased from KPL, Inc., Gaithersburg, Md., USA. Paraformaldehyde (PFA) was purchased from EM Sciences. DRAQ5 was purchased from Biostatus Limited, Leicestershire, UK.
RKO adherent cells were maintained in growth medium (DMEM/Glutamax medium supplemented with 10% v/v heat inactivated fetal bovine serum and 100 units/mL penicillin-streptomycin) and cultured at 37° C. under 5% CO2.
Compound (100 nL) from a 96-well source plate was added directly to 384 well cell plate. Plates were incubated at 37° C., 5% CO2 for 48 hours. After two days of incubation, plates were brought to room temperature outside of the incubator for ten minutes and blotted on paper towels to remove cell media. Cells were fixed for 20 minutes at room temperature by adding 50 ul of 8% PFA followed by aspiration of supernatant with the Biotek EL406 plate washer. Cells were then permeabilized by addition of 50 μL of ice cold 100% methanol directly to each well and incubated for 30 min at room temperature. After 30 min, plates were transferred to a Biotek EL406 plate washer and washed 2 times with 100 μL per well of wash buffer (IX PBS). Next 60 μL per well of Odyssey blocking buffer (Odyssey Buffer with 0.1% Tween 20 (v/v)) were added to each plate and incubated 1 hour at room temperature. Blocking buffer was removed and 20 μL per well of primary antibody was added (asymmetric-methyl PABP1) diluted 1:400 in Odyssey buffer with 0.1% Tween 20 (v/v)) and plates were incubated overnight (16 hours) at 4° C. Plates were washed 5 times with 100 μL per well of wash buffer. Next 20 μL per well of secondary antibody was added (1:800 800CW goat anti-rabbit IgG (H+L) antibody, 1:2000 DRAQ5 in Odyssey buffer with 0.1% Tween 20 (v/v)) and incubated for 1 hour at room temperature. The plates were washed 5 times with 100 μL per well wash buffer then 2 times with 100 μL per well of water. Plates were allowed to dry at room temperature then imaged on the Licor Odyssey machine which measures integrated intensity at 700 nm and 800 nm wavelengths. Both 700 and 800 channels were scanned.
First, the ratio for each well was determined by:
Each plate included fourteen control wells of DMSO only treatment (minimum inhibition) as well as fourteen control wells for maximum inhibition treated with 20 μM of a reference compound. The average of the ratio values for each control type was calculated and used to determine the percent […] for each test well in the plate. Reference compound was serially diluted three-fold in DMSO for a total of nine test concentrations, beginning at 20 μM.
Percent inhibition was determined and IC50 curves were generated using triplicate wells per concentration of compound.
Regarding `CC(C)n1ncc2c(N3CCOCC3)cc(-c3cccc(OCC(O)CN)c3)nc21` (stereo not shown) [Example 11-1], the pIC50 (usually the negative decadic logarithm of the IC50, by convention in mol/L) is 4.70 to 5.00.

Staying with this assay, now noted: Homo sapiens, 48 hours incubation, read-out: Cellular IC50.
Consider `CNCC(O)COc1cccc(-c2cc(NC(=O)NC3CCOCC3)c3cnn(C(C)C)c3n2)c1` (stereo not shown) [Example 2-1], for which the pIC50 is under 4.70. Still for that read-out and setting: to `CC(C)n1ncc2c(N3CCOCC3)cc(-c3cccc(OCC(O)CN)c3)nc21` (stereo not shown) [Example 3-1] belongs 4.70 to 5.00. In the case of `CNC(=O)Nc1cc(-c2cccc(OCC(O)CN)c2)nc2c1cnn2C(C)C` (stereo not shown) [Example 8-1], the pIC50 is under 4.70. Same read-out and setting: to `CNCC(O)COc1cccc(-c2cc(NCCN)c3cnn(C(C)C)c3n2)c1` (stereo not shown) [Example 9-1] belongs under 4.70; to `COC(=O)Nc1cc(-c2cccc(OCC(O)CN)c2)nc2c1cnn2C(C)C` (stereo not shown) [Example 10-1], under 4.70.

As for `CC(C)n1ncc2c(N3CCOCC3)cc(-c3cccc(OC[C@@H](O)CN)c3)nc21` [Example 12-1], the pIC50 is under 4.70.

Take `CC(C)n1ncc2c(NC(=O)N(C)C)cc(-c3cccc(OCC(O)CN)c3)nc21` (stereo not shown) [Example 14-1]: the pIC50 is under 4.70.

For `CNCC(O)COc1cccc(-c2cc(N(C)C3CCOC3)n3ncc(C(C)C)c3n2)c1` (stereo not shown) [Example 14-6], the pIC50 was under 4.70.

For the molecule `CNCC(O)COc1cccc(-c2cc(NCCCN)c3cnn(C(C)C)c3n2)c1` (stereo not shown) [Example 15-1], the pIC50 is under 4.70. Still for that read-out and setting: with `CC(C)n1ncc2c(NC3CC3)cc(-c3cccc(OCC(O)CN)c3)nc21` (stereo not shown) [Example 15-9] the figure was under 4.70; with `CNCC(O)COc1cccc(-c2cc(NC(=O)OC)c3cnn(C(C)C)c3n2)c1` (stereo not shown) [Example 16-1], 4.70 to 5.00. On the same count and under the same terms, to `COC(=O)CNc1cc(-c2cccc(OCC(O)CN)c2)nc2c1cnn2C(C)C` (stereo not shown) [Example 16-9] belongs under 4.70; to `CCOC(=O)Nc1cc(-c2cccc(OCC(O)CN)c2)nc2c1cnn2C(C)C` (stereo not shown) [Example 17-1], under 4.70; to `CNCC(O)COc1cccc(-c2cc(NC3CC3)c3cnn(C(C)C)c3n2)c1` (stereo not shown) [Example 18-9], under 4.70. Same read-out and setting: with `CC(C)n1ncc2c(NC3CCOCC3)cc(-c3cccc(OCC(O)CN)c3)nc21` (stereo not shown) [Example 19-1] the figure was under 4.70; with `CNCC(O)COc1cccc(-c2cc(N3CCOCC3)c3cnn(C(C)C)c3n2)c1` (stereo not shown) [Example 20-1], under 4.70; with `CNCC(O)COc1cccc(-c2cc(NC(=O)N(C)C)c3cnn(C(C)C)c3n2)c1` (stereo not shown) [Example 21-1], under 4.70. As for `CNCC(O)COc1cccc(-c2cc(NCCCCN)c3cnn(C(C)C)c3n2)c1` (stereo not shown) [Example 22-1], the pIC50 is under 4.70. Still for that read-out and setting: with `CNCC(O)COc1cccc(-c2cc(NC)c3cnn(C(C)C)c3n2)c1` (stereo not shown) [Example 22-9] the figure was under 4.70; with `CNCC(O)COc1cccc(-c2cc(NCC(=O)OC)c3cnn(C(C)C)c3n2)c1` (stereo not shown) [Example 23-1], under 4.70; with `CNCC(O)COc1cccc(-c2cc(Nc3ccccn3)c3cnn(C(C)C)c3n2)c1` (stereo not shown) [Example 24-1], under 4.70. On the same count and under the same terms, with `CC(C)n1ncc2c(NCc3cccnc3)cc(-c3cccc(OCC(O)CN)c3)nc21` (stereo not shown) [Example 25-1] the figure was under 4.70; with `CC(C)n1ncc2c(NCc3ccncc3)cc(-c3cccc(OCC(O)CN)c3)nc21` (stereo not shown) [Example 26-1], under 4.70.

Consider `CC(C)n1ncc2c(N(C)C3CCOCC3)cc(-c3cccc(OCC(O)CN)c3)nc21` (stereo not shown) [Example 28-1], for which the pIC50 is 4.70 to 5.00.

For the molecule `CNCC(O)COc1cccc(-c2cc(NC3CCOCC3)c3cnn(C(C)C)c3n2)c1` (stereo not shown) [Example 29-1], the pIC50 is 4.70 to 5.00. Still for that read-out and setting: to `CC(C)n1ncc2c(NCC3CCOCC3)cc(-c3cccc(OCC(O)CN)c3)nc21` (stereo not shown) [Example 30-1] belongs under 4.70. On the same count and under the same terms, to `CNCC(O)COc1cccc(-c2cc(NCCCCCN)c3cnn(C(C)C)c3n2)c1` (stereo not shown) [Example 32-1] belongs under 4.70. `CNCC(O)COc1cccc(-c2cc(N(C)c3ccccn3)c3cnn(C(C)C)c3n2)c1` (stereo not shown) [Example 33-1]: the pIC50 was 4.70 to 5.00. As to `CNCC(O)COc1cccc(-c2cc(NCc3ccccn3)c3cnn(C(C)C)c3n2)c1` (stereo not shown) [Example 34-1], the negative logarithm of the IC50 (pIC50) is 4.70 to 5.00. Same read-out and setting: to `CC(C)n1ncc2c(NCc3cccc(O)c3)cc(-c3cccc(OCC(O)CN)c3)nc21` (stereo not shown) [Example 35-1] belongs under 4.70; to `Cc1c(CNc2cc(-c3cccc(OCC(O)CN)c3)nc3c2cnn3C(C)C)cnn1C` (stereo not shown) [Example 37-1], under 4.70. Same read-out and setting: to `CC(C)n1ncc2c(N[C@H]3CO[C@@H]4OCC[C@@H]43)cc(-c3cccc(OCC(O)CN)c3)nc21` (stereo partly shown) [Example 38-1] belongs under 4.70.

Turning to `CNCC(O)COc1cccc(-c2cc(N(C)C3CCOCC3)c3cnn(C(C)C)c3n2)c1` (stereo not shown) [Example 40-1], the pIC50 was 5.00 to 5.30. The same measure, in the same setting: to `CNCC(O)COc1cccc(-c2cc(NCC3CCOCC3)c3cnn(C(C)C)c3n2)c1` (stereo not shown) [Example 41-1] belongs under 4.70; to `CC(C)n1ncc2c(N(C)CC3CCOCC3)cc(-c3cccc(OCC(O)CN)c3)nc21` (stereo not shown) [Example 42-1], under 4.70. On the same count and under the same terms, to `CNCC(O)COc1cccc(-c2cc(NCCCCCCN)c3cnn(C(C)C)c3n2)c1` (stereo not shown) [Example 43-1] belongs under 4.70; to `CNCC(O)COc1cccc(-c2cc(NCc3cnn(C)c3C)c3cnn(C(C)C)c3n2)c1` (stereo not shown) [Example 46-1], 4.70 to 5.00; to `CNCC(O)COc1cccc(-c2cc(N[C@H]3CO[C@@H]4OCC[C@@H]43)c3cnn(C(C)C)c3n2)c1` (stereo partly shown) [Example 47-1], under 4.70. Still for that read-out and setting: with `CNCC(O)COc1cccc(-c2cc(N(C)CC3CCOCC3)c3cnn(C(C)C)c3n2)c1` (stereo not shown) [Example 48-1] the figure was 4.70 to 5.00.

In the case of `CC(C)n1ncc2c(NC(=O)NC3CCOCC3)cc(-c3cccc(OCC(O)CN)c3)nc21` (stereo not shown) [Example 49-1], the pIC50 is under 4.70. On the same count and under the same terms, to `CC(C)n1ncc2c(NCc3cnc4ccccn34)cc(-c3cccc(OCC(O)CN)c3)nc21` (stereo not shown) [Example 50-1] belongs under 4.70. On the same count and under the same terms, with `CC(C)n1ncc2c(NC(=O)OCc3ccccc3)cc(-c3cccc(OCC(O)CN)c3)nc21` (stereo not shown) [Example 51-1] the figure was under 4.70; with `CNCC(O)COc1cccc(-c2cc(N3CCC(C(=O)OC)CC3)c3cnn(C(C)C)c3n2)c1` (stereo not shown) [Example 52-1], under 4.70; with `CNCC(O)COc1cccc(-c2cc(NCc3cnc4ccccn34)c3cnn(C(C)C)c3n2)c1` (stereo not shown) [Example 53-1], under 4.70. Still for that read-out and setting: to `CNCC(O)COc1cccc(-c2cc(NC(=O)OCc3ccccc3)c3cnn(C(C)C)c3n2)c1` (stereo not shown) [Example 54-1] belongs under 4.70; to `COc1nc(C)cc(C)c1CNc1cc(-c2cccc(OCC(O)CN)c2)nc2c1cnn2C(C)C` (stereo not shown) [Example 55-1], under 4.70; to `CNCC(O)COc1cccc(-c2cc(NCCNC(=O)c3cccnc3)c3cnn(C(C)C)c3n2)c1` (stereo not shown) [Example 56-1], under 4.70. On to `CNCC(O)COc1cccc(-c2cc(NCCNC(=O)c3ccn(C)n3)c3cnn(C(C)C)c3n2)c1` (stereo not shown) [Example 58-1], for which the pIC50 was under 4.70. On the same count and under the same terms, to `CNCC(O)COc1cccc(-c2cc(NCCCNC(=O)c3cccnc3)c3cnn(C(C)C)c3n2)c1` (stereo not shown) [Example 59-1] belongs under 4.70; to `CNCC(O)COc1cccc(-c2cc(NCCCNC(=O)c3ccn(C)n3)c3cnn(C(C)C)c3n2)c1` (stereo not shown) [Example 60-1], under 4.70. Still for that read-out and setting: with `CNCC(O)COc1cccc(-c2cc(NCCCCNC(=O)c3cccnc3)c3cnn(C(C)C)c3n2)c1` (stereo not shown) [Example 61-1] the figure was under 4.70; with `CNCC(O)COc1cccc(-c2cc(NCCCCNC(=O)c3ccn(C)n3)c3cnn(C(C)C)c3n2)c1` (stereo not shown) [Example 62-1], under 4.70. Turning to `CNCC(O)COc1cccc(-c2cc(NCCCCCNC(=O)c3cccnc3)c3cnn(C(C)C)c3n2)c1` (stereo not shown) [Example 63-1], the pIC50 was under 4.70. On the same count and under the same terms, with `CNCC(O)COc1cccc(-c2cc(NCCCCCCNC(=O)c3cccnc3)c3cnn(C(C)C)c3n2)c1` (stereo not shown) [Example 65-1] the figure was 4.70 to 5.00.
